Experimental data reported in ChEMBL document CHEMBL4004838, “Design and synthesis of novel phenyl -1, 4-beta-carboline-hybrid molecules as potential anticancer agents” (Eur J Med Chem, 2017).

Tests used:
Type in all cases: functional
CCRF-CEM = experiment: Growth inhibition of human CCRF-CEM cells assessed as cell growth at 10^-5 M incubated for 48 hrs by sulforhodamine B assay relative to control; conditions: read-out: Activity
HL-60(TB) = experiment: Growth inhibition of human HL-60(TB) cells assessed as cell growth at 10^-5 M incubated for 48 hrs by sulforhodamine B assay relative to control; conditions: HL-60, 48 h, read-out: Activity
K562 = experiment: Growth inhibition of human K562 cells assessed as cell growth at 10^-5 M incubated for 48 hrs by sulforhodamine B assay relative to control; conditions: K562, 48 h, read-out: Activity
RPMI-8226 = experiment: Growth inhibition of human RPMI8226 cells assessed as cell growth at 10^-5 M incubated for 48 hrs by sulforhodamine B assay relative to control; conditions: RPMI-8226, 48 h, read-out: Activity
SR = experiment: Growth inhibition of human SR cells assessed as cell growth at 10^-5 M incubated for 48 hrs by sulforhodamine B assay relative to control; conditions: read-out: Activity
HOP-62 = experiment: Growth inhibition of human HOP62 cells assessed as cell growth at 10^-5 M incubated for 48 hrs by sulforhodamine B assay relative to control; conditions: HOP-62, 48 h, read-out: Activity
HOP-92 = experiment: Growth inhibition of human HOP92 cells assessed as cell growth at 10^-5 M incubated for 48 hrs by sulforhodamine B assay relative to control; conditions: HOP-92, 48 h, read-out: Activity
NCI-H460 = experiment: Growth inhibition of human NCI-H460 cells assessed as cell growth at 10^-5 M incubated for 48 hrs by sulforhodamine B assay relative to control; conditions: NCI-H460, 48 h, read-out: Activity
COLO 205 = experiment: Growth inhibition of human COLO205 cells assessed as cell growth at 10^-5 M incubated for 48 hrs by sulforhodamine B assay relative to control; conditions: COLO 205, 48 h, read-out: Activity
SW-620 = experiment: Growth inhibition of human SW620 cells assessed as cell growth at 10^-5 M incubated for 48 hrs by sulforhodamine B assay relative to control; conditions: SW-620, 48 h, read-out: Activity
SNB-19 = experiment: Growth inhibition of human SNB19 cells assessed as cell growth at 10^-5 M incubated for 48 hrs by sulforhodamine B assay relative to control; conditions: SNB-19, 48 h, read-out: Activity
MDA-MB-435 = experiment: Growth inhibition of human MDA-MB-435 cells assessed as cell growth at 10^-5 M incubated for 48 hrs by sulforhodamine B assay relative to control; conditions: MDA-MB-435, 48 h, read-out: Activity
SK-MEL-2 = experiment: Growth inhibition of human SK-MEL-2 cells assessed as cell growth at 10^-5 M incubated for 48 hrs by sulforhodamine B assay relative to control; conditions: SK-MEL-2, 48 h, read-out: Activity
SK-MEL-28 = experiment: Growth inhibition of human SK-MEL-28 cells assessed as cell growth at 10^-5 M incubated for 48 hrs by sulforhodamine B assay relative to control; conditions: SK-MEL-28, 48 h, read-out: Activity
SK-MEL-5 = experiment: Growth inhibition of human SK-MEL-5 cells assessed as cell growth at 10^-5 M incubated for 48 hrs by sulforhodamine B assay relative to control; conditions: SK-MEL-5, 48 h, read-out: Activity
OVCAR-4 = experiment: Growth inhibition of human OVCAR4 cells assessed as cell growth at 10^-5 M incubated for 48 hrs by sulforhodamine B assay relative to control; conditions: OVCAR-4, 48 h, read-out: Activity
NCI/ADR-RES = experiment: Growth inhibition of human NCI-ADR-RES cells assessed as cell growth at 10^-5 M incubated for 48 hrs by sulforhodamine B assay relative to control; conditions: read-out: Activity
SK-OV-3 = experiment: Growth inhibition of human SKOV3 cells assessed as cell growth at 10^-5 M incubated for 48 hrs by sulforhodamine B assay relative to control; conditions: SK-OV-3, 48 h, read-out: Activity
786-0 = experiment: Growth inhibition of human 786-0 cells assessed as cell growth at 10^-5 M incubated for 48 hrs by sulforhodamine B assay relative to control; conditions: 786-0, 48 h, read-out: Activity
CAKI-1 = experiment: Growth inhibition of human Caki1 cells assessed as cell growth at 10^-5 M incubated for 48 hrs by sulforhodamine B assay relative to control; conditions: CAKI-1, 48 h, read-out: Activity
SN12C = experiment: Growth inhibition of human SN12C cells assessed as cell growth at 10^-5 M incubated for 48 hrs by sulforhodamine B assay relative to control; conditions: read-out: Activity
UO-31 = experiment: Growth inhibition of human UO31 cells assessed as cell growth at 10^-5 M incubated for 48 hrs by sulforhodamine B assay relative to control; conditions: UO-31, 48 h, read-out: Activity
PC-3 = experiment: Growth inhibition of human PC3 cells assessed as cell growth at 10^-5 M incubated for 48 hrs by sulforhodamine B assay relative to control; conditions: PC-3, 48 h, read-out: Activity
DU-145 = experiment: Growth inhibition of human DU145 cells assessed as cell growth at 10^-5 M incubated for 48 hrs by sulforhodamine B assay relative to control; conditions: DU-145, 48 h, read-out: Activity
BT-549 = experiment: Growth inhibition of human BT549 cells assessed as cell growth at 10^-5 M incubated for 48 hrs by sulforhodamine B assay relative to control; conditions: BT-549, 48 h, read-out: Activity
T47D = experiment: Growth inhibition of human T47D cells assessed as cell growth at 10^-5 M incubated for 48 hrs by sulforhodamine B assay relative to control; conditions: read-out: Activity
UACC-257 = experiment: Growth inhibition of human UACC257 cells assessed as cell growth at 10^-5 M incubated for 48 hrs by sulforhodamine B assay relative to control; conditions: UACC-257, 48 h, read-out: Activity
IGROV-1 = experiment: Growth inhibition of human IGROV1 cells assessed as cell growth at 10^-5 M incubated for 48 hrs by sulforhodamine B assay relative to control; conditions: IGROV-1, 48 h, read-out: Activity

Q: What does the source list for `O=Cc1ccc(C2NCCc3c2[nH]c2ccccc32)cc1` (stereo unspecified)?
A: growth at 10 µM (CCRF-CEM): 99.3%; growth at 10 µM (HL-60(TB)): 89.4%; growth at 10 µM (K562): 102%; growth at 10 µM (RPMI-8226): 101%; growth at 10 µM (SR): 114%; growth at 10 µM (HOP-62): 86.3%; growth at 10 µM (HOP-92): 87.2%; growth at 10 µM (NCI-H460): 100%; growth at 10 µM (COLO 205): 105%; growth at 10 µM (SW-620): 88.8%; growth at 10 µM (SNB-19): 100%; growth at 10 µM (MDA-MB-435): 107%; growth at 10 µM (SK-MEL-2): 94.8%; growth at 10 µM (SK-MEL-28): 109%; growth at 10 µM (SK-MEL-5): 93%; growth at 10 µM (OVCAR-4): 97.4%; growth at 10 µM (NCI/ADR-RES): 107%; growth at 10 µM (SK-OV-3): 88.2%; growth at 10 µM (786-0): 104%; growth at 10 µM (CAKI-1): 72.4%; growth at 10 µM (SN12C): 89%; growth at 10 µM (UO-31): 61.9%; growth at 10 µM (PC-3): 84.3%; growth at 10 µM (DU-145): 110%; growth at 10 µM (BT-549): 90.1%; growth at 10 µM (T47D): 92.3%

Q: Which growth at 10 µM (CCRF-CEM) does the source give for `Cc1ccc(S(=O)(=O)N2CCc3c([nH]c4ccccc34)C2c2ccc(C=O)cc2)cc1` (stereo unspecified) here?
A: 106%

Q: What about the growth at 10 µM (HL-60(TB)) of the same compound?
A: 105%

Q: What about the growth at 10 µM (K562) of the same compound?
A: 106%

Q: And the growth at 10 µM (RPMI-8226)?
A: 99.1%

Q: What about the growth at 10 µM (SR) of the same compound?
A: 97.2%

Q: What about the growth at 10 µM (HOP-62) of the same compound?
A: 94.3%

Q: And the growth at 10 µM (HOP-92)?
A: 102%

Q: And the growth at 10 µM (NCI-H460)?
A: 93%

Q: What about the growth at 10 µM (COLO 205) of the same compound?
A: 92.1%

Q: And the growth at 10 µM (SW-620)?
A: 90.1%

Q: And the growth at 10 µM (SNB-19)?
A: 91.3%

Q: And the growth at 10 µM (MDA-MB-435)?
A: 93.4%

Q: What about the growth at 10 µM (SK-MEL-2) of the same compound?
A: 81.6%

Q: What about the growth at 10 µM (SK-MEL-28) of the same compound?
A: 86%

Q: What about the growth at 10 µM (SK-MEL-5) of the same compound?
A: 89.8%

Q: And the growth at 10 µM (UACC-257)?
A: 102%

Q: And the growth at 10 µM (IGROV-1)?
A: 86.5%

Q: What about the growth at 10 µM (OVCAR-4) of the same compound?
A: 85.8%

Q: And the growth at 10 µM (NCI/ADR-RES)?
A: 88.9%

Q: And the growth at 10 µM (SK-OV-3)?
A: 88.5%

Q: And the growth at 10 µM (786-0)?
A: 99.6%

Q: And the growth at 10 µM (CAKI-1)?
A: 73.5%

Q: And the growth at 10 µM (SN12C)?
A: 87.7%

Q: And the growth at 10 µM (UO-31)?
A: 66.7%

Q: And the growth at 10 µM (PC-3)?
A: 84.2%

Q: What about the growth at 10 µM (DU-145) of the same compound?
A: 101%

Q: What about the growth at 10 µM (BT-549) of the same compound?
A: 77.1%

Q: What about the growth at 10 µM (T47D) of the same compound?
A: 89.1%

Q: `c1ccc2c(c1)[nH]c1c(-c3ccc(-c4nccc5c4[nH]c4ccccc45)cc3)nccc12` was tested. Which growth at 10 µM (CCRF-CEM) did it give?
A: 106%

Q: What about the growth at 10 µM (HL-60(TB)) of the same compound?
A: 99.1%

Q: What about the growth at 10 µM (K562) of the same compound?
A: 93.8%

Q: And the growth at 10 µM (RPMI-8226)?
A: 97.4%

Q: What about the growth at 10 µM (SR) of the same compound?
A: 86%

Q: What about the growth at 10 µM (HOP-62) of the same compound?
A: 82.7%

Q: What about the growth at 10 µM (HOP-92) of the same compound?
A: 98.7%

Q: What about the growth at 10 µM (NCI-H460) of the same compound?
A: 103%

Q: What about the growth at 10 µM (COLO 205) of the same compound?
A: 92%

Q: And the growth at 10 µM (SW-620)?
A: 108%

Q: What about the growth at 10 µM (SNB-19) of the same compound?
A: 106%

Q: What about the growth at 10 µM (MDA-MB-435) of the same compound?
A: 109%

Q: What about the growth at 10 µM (SK-MEL-2) of the same compound?
A: 95.6%

Q: And the growth at 10 µM (SK-MEL-28)?
A: 110%

Q: What about the growth at 10 µM (SK-MEL-5) of the same compound?
A: 79%

Q: What about the growth at 10 µM (UACC-257) of the same compound?
A: 119%

Q: And the growth at 10 µM (IGROV-1)?
A: 88.8%

Q: And the growth at 10 µM (OVCAR-4)?
A: 105%

Q: What about the growth at 10 µM (NCI/ADR-RES) of the same compound?
A: 95.9%

Q: And the growth at 10 µM (SK-OV-3)?
A: 88%

Q: What about the growth at 10 µM (786-0) of the same compound?
A: 94.8%

Q: And the growth at 10 µM (SN12C)?
A: 94.5%

Q: What about the growth at 10 µM (UO-31) of the same compound?
A: 60.6%

Q: And the growth at 10 µM (PC-3)?
A: 84.2%

Q: And the growth at 10 µM (DU-145)?
A: 122%

Q: And the growth at 10 µM (BT-549)?
A: 87.6%

Q: And the growth at 10 µM (T47D)?
A: 75.8%
